Measured values reported in patent US20230116703A1, “NOVEL ERGOLINES AND METHODS OF TREATING MOOD DISORDERS” (priority 2021, published 2023).
Where two headings read alike, the source gives them in different places.

How the values were obtained:
5-HT2A receptor [1] = molecular target: T1, 5-HT2A receptor (Homo sapiens, UniProt P28223); assay: PathHunter beta-arrestin recruitment assay at 5-HT2A; type: cell-based; conditions: for agonist type in arrestin recruitment assay (in words) / Emax: 5-HT2A beta-arrestin
T1 construct: host or cells: HEK293
Procedure: The degree of arrestin bias varied substantially across the other compounds tested as well.
Arrestin Functional Assay at 5-HT2A. Recruitment of beta-arrestin was determined using a PathHunter assay at Eurofins DiscoverX (Fremont, Calif.) according to their standard protocols. PathHunter GPCR beta-arrestin assays take advantage of DiscoverX's proprietary Enzyme Fragment Complementation technology. The GPCR is fused in frame with a small enzyme donor fragment ProLink™ (PK) and co-expressed in cells stably expressing a fusion protein of beta-arrestin and the larger, N-terminal deletion mutant of beta-galactosidase. Activation of the GPCR (5-HT2A receptor in this case) stimulates binding of beta-arrestin to the PK-tagged GPCR and forces complementation of the two enzyme fragments, resulting in the formation of an active beta-galactosidase enzyme. This interaction leads to an increase in enzyme activity that can be measured using chemiluminescent PathHunter Detection Reagents. Briefly, PathHunter cells expressing 5-HT2A receptors were seeded in a volume of 20 μL into 384-well plates and incubated at 37° C. for the appropriate time prior to testing. […] Plates were then imaged on a microplate reader and the agonist activity was calculated using the following formula: % Activity=100%×(mean RLU of test sample−mean RLU of vehicle control)/(mean MAX control ligand−mean RLU of vehicle control), where RLU=relative light units.

5-HT2A receptor [2] = molecular target: T1, 5-HT2A receptor; assay: biochemical; type: binding; conditions: 1 nM [^3H]ketanserin, HEK293 stable cell line; read-out: 5-HT2A Receptor Ki (nM) ([^3H]ketanserin)
In short: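 Values reflect [^3H]ketanserin binding competition. Assay conditions were adapted from the literature.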

5-HT1A receptor = molecular target: T2, 5-HT1A receptor (Homo sapiens, UniProt P08908); assay: cell-based
T2 construct: host or cells: CHO cells
T2 sequence (P08908 1-422): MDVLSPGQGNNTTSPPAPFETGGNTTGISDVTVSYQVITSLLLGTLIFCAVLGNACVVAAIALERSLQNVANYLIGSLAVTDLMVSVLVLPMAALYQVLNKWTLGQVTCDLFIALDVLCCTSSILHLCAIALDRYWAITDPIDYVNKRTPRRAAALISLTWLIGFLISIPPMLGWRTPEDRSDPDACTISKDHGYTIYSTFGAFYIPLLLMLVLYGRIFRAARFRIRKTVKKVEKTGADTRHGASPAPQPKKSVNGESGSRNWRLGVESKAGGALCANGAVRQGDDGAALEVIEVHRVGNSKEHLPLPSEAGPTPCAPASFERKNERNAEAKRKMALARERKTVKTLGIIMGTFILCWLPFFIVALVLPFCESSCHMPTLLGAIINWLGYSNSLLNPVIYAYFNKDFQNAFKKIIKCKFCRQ

5-HT2B receptor = molecular target: T3, 5-HT2B receptor (Homo sapiens, UniProt P41595); assay: cell-based; conditions: Ca^2+ flux, agonist; read-out: 5-HT2B EC50
T3 construct: host or cells: HEK293

C57BL/6 mice = assay: Head twitch response (HTR) in mice; type: in vivo, mouse; conditions: SC; for ED50: 20 min, read-out: ED50 (95% CI); for ED50 / Most Efficacious Dose / Emax (95% CI): mouse HTR; for ED50 / Emax (95% CI): 20 min observation, curve fit, poor in some cases
Procedure: Agonists of the 5-HT2A receptor are well known to induce this effect in rodents and the potency of this HTR is correlated with hallucinogenic potency in humans.
Animals. Adult male C57BL/6 mice, aged 6-8 weeks (body weight 20-25 g) were used in this experiment. Animals were housed under controlled temperatures and 12-hour light/dark cycles (lights on between 07:00-19:00 h), with ad libitum food and water. This study was carried out in strict accordance with the requirements of the Committee for the Purpose of Control and Supervision of Experiments on Animals (CPCSEA), India. All efforts were made to minimize suffering.
Drugs and Drug Administration. Compound 1 was synthesized as described above. It was administered subcutaneously (SC) dissolved in saline vehicle at a volume of 10 mL/kg. Five doses were tested, with n=6 animals/group. Doses were calculated on the basis of the freebase.
Procedure. Mice were administered one dose of the drug and immediately placed into a small open field for behavioral observation. Animals were observed continuously for 20 mins and the number of head twitches (HTs) were counted by an observer blind to the treatment condition.
Statistical Analysis. The data points shown are the mean±standard error of the mean (SEM). Analysis was performed using GraphPad Prism 6. Curves were fit using a non-linear gaussian distribution to calculate ED50 and Emax values.
Additional disclosed compounds were tested in the mouse head twitch response (HTR) assay according to the procedure described in Example 43. […] Lastly, compounds with much larger benzyl and phenethyl substituents on the amine nitrogen (e.g., 10 and 11) were low efficacy in this assay, consistent with their lower maximal efficacy in the arrestin functional assay (see Example 41).

human 5-HT2C receptor = molecular target: T4, human 5-HT2C receptor (Homo sapiens, UniProt P28335); assay: cell-based; conditions: Ca^2+ flux, agonist
T4 sequence (P28335 33-458): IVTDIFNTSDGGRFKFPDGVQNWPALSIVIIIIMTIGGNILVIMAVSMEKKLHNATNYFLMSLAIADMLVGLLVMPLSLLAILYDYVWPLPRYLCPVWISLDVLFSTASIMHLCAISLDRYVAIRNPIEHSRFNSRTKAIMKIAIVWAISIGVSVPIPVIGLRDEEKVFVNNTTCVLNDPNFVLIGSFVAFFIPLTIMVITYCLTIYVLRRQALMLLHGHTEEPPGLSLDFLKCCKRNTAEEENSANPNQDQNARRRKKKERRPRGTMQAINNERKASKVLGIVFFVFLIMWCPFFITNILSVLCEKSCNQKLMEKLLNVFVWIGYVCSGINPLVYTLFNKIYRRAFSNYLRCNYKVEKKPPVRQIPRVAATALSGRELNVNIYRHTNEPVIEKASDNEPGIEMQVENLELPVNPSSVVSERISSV

[3] = Metabolic stability in human liver microsomes (HLM); type: in vitro ADME; conditions: for t1/2: 1 μM, 0.50 mg protein per mL
Excerpt: HLM Stability. Pooled HLM from adult male and female donors (Corning 452117) were used.

[4] = Metabolic stability in mouse liver microsomes (MLM); type: in vitro ADME; conditions: 0.50 mg protein per mL; for t1/2: MLM (CD-1), 1 μM
Excerpt: MLM Stability Pooled MLM from CD-1 mice (BIOIVT M00501) were used.

[5] = Metabolic stability in rat liver microsomes (RLM); conditions: for t1/2: RLM, 0.50 mg protein per mL
5-HT2A receptor [6] = molecular target: T1, 5-HT2A receptor; assay: cell-based; type: cell-based; conditions: Ca^2+ flux, agonist; read-out: 5-HT2A EC50
[7] = Ca^2+ flux, agonist, read-out: 5-HT1A EC50
[8] = both sexes, human, pooled human liver microsomes, pH 7.4, 0.50 mg protein per mL
[9] = mouse, pooled mouse liver microsomes, pH 7.4, MLM (CD-1)
[10] = both, rat, pooled rat liver microsomes, pH 7.4

T1 sequence (P28223 whole entry): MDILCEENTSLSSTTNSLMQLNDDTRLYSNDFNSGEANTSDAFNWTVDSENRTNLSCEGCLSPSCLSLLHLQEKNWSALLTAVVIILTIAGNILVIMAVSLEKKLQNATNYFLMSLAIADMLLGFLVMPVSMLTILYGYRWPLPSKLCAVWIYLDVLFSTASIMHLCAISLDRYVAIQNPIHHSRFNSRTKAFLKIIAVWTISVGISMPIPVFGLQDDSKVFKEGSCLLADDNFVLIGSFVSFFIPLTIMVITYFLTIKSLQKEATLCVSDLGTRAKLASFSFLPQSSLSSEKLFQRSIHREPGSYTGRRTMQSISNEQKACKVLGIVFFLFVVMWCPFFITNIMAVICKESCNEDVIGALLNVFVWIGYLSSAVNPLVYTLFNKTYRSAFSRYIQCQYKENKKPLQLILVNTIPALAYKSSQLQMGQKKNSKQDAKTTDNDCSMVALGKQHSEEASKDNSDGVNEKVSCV
T3 sequence (P41595 whole entry): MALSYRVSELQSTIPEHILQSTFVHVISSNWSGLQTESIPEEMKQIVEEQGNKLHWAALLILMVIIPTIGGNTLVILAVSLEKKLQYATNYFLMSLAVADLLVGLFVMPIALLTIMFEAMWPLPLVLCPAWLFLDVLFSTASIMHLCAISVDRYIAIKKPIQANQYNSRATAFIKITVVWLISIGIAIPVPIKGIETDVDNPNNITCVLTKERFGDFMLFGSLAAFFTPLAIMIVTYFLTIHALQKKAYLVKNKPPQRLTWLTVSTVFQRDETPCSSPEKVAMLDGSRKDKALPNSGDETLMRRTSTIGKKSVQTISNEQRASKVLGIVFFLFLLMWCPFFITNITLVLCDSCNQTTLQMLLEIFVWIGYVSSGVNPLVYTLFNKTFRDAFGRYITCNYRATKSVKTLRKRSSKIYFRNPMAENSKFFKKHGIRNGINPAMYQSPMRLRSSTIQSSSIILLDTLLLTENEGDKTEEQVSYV

Compound | EC50 (5-HT2A receptor [1]) [nM] | agonist type in arrestin recruitment assay (in words) (5-HT2A receptor [1]) | Ki (5-HT2A receptor [2]) [nM] | EC50 (5-HT1A receptor; [7]) [nM] | EC50 (5-HT2B receptor) [nM] | ED50 (C57BL/6 mice) [mg/kg] | Most Efficacious Dose (C57BL/6 mice) [mg/kg] | Emax (95% CI) (C57BL/6 mice) | EC50 (human 5-HT2C receptor) [nM] | t1/2 [3] [min] | microsomal CLint at 1 μM [3, 8] [µL/min/mg] | t1/2 [4] [min] | microsomal CLint at 1 μM [4, 9] [µL/min/mg] | t1/2 [5] [min] | microsomal CLint at 1 μM [5, 10] [µL/min/mg] | EC50 (5-HT2A receptor [6]) [nM] | Emax (5-HT2A receptor [1]) [%] | other results
C=CCN1C[C@H](C(=O)N[C@H](C)CC)C=C2c3cccc4[nH]cc(c34)C[C@H]21 [Compound 8, (6aR,9R)-7-allyl-N—((R)-sec-butyl)-4,6,6a,7,8,9-hexahydroindolo[4,3-fg]quinoline-9-carboxamide] | 1.71 | full agonists | 2.38 | 2.53 | 22.2 | 0.0282 | 1 | 12.03 (9.571-14.68) | 4.05 | 7.9 | 174 | 3.7 | 377 | 7.7 | 180 | 0.678 | – | –
CC[C@@H](C)NC(=O)[C@@H]1C=C2c3cccc4[nH]cc(c34)C[C@H]2N(C)C1 [Int8, (6aR,9R)—N—((R)-sec-butyl)-7-methyl-4,6,6a,7,8,9-hexahydroindolo[4,3-fg]quinoline-9-carboxamide] | 4.05 | partial agonists | 1.07 | 9.69 | 71.9 | 0.106 | 1 | 14.34 (10.41-31.47) | 7.32 | 64.9 | 21.3 | 39.9 | 34.7 | 99.5 | 13.9 | 10.3 | < 60 | –
CC[C@@H](C)NC(=O)[C@@H]1C=C2c3cccc4[nH]cc(c34)C[C@H]2N(CC)C1 [Compound 5, (6aR,9R)—N—((R)-sec-butyl)-7-ethyl-4,6,6a,7,8,9-hexahydroindolo[4,3-fg]quinoline-9-carboxamide] | 1.92 | full agonists | 2.18 | 0.96 | 35.4 | 0.0306 | 0.32 | 15.22 (11.77-19.03) | 1.29 | – | 62.3 | – | 170 | – | 72 | 0.718 | – | half-life at 1 μM [3, 8]: 22.2 min; half-life at 1 μM [4, 9]: 8.1 min; half-life at 1 μM [5, 10]: 19.3 min
CCC[C@@H](C)NC(=O)[C@@H]1C=C2c3cccc4[nH]cc(c34)C[C@H]2N(CCC)C1 [Compound 7, (6aR,9R)—N—((R)-pentan-2-yl)-7-propyl-4,6,6a,7,8,9-hexahydroindolo[4,3-fg]quinoline-9-carboxamide] | 1.6 | full agonists | 0.85 | 12.8 | 364 | 58.9 | 1 | 720.4 (???-???) | 1.99 | 1.65 | 840 | 0.541 | 2560 | 1.612 | 860 | 13.2 | – | –
CCC(CC)NC(=O)[C@@H]1C=C2c3cccc4[nH]cc(c34)C[C@H]2N(C)C1 [Int14, (6aR,9R)-7-methyl-N-(pentan-3-yl)-4,6,6a,7,8,9-hexahydroindolo[4,3-fg]quinoline-9-carboxamide] | 1.48 | partial agonists | 0.47 | – | > 10000 | 1.47 | 1 | 21.63 (10.59-???) | 3.63 | 17.593 | 78.8 | 6.07 | 228 | 37.988 | 36.5 | 15.9 | < 60 | EC50 (5-HT1A receptor): 46 nM
CCC[C@@H](C)NC(=O)[C@@H]1C=C2c3cccc4[nH]cc(c34)C[C@H]2N(C)C1 [Int17, (6aR,9R)-7-methyl-N—((R)-pentan-2-yl)-4,6,6a,7,8,9-hexahydroindolo[4,3-fg]quinoline-9-carboxamide] | 1.19 | partial agonists | 0.41 | 7.01 | 70.8 | 0.00405 | 0.32 | 4.96 (3.764-6.286) | 2.53 | 15.865 | 87.4 | 8.252 | 168 | 27.894 | 49.7 | 9.67 | < 60 | # HTR at Most Efficacious Dose (C57BL/6 mice; mouse, head twitches in 20 min): 6.0
